Laboratory results taken from patent US9492434B2, “Combination compositions and methods of treatment” (University of Florida Research Foundation, Inc., priority 2011, dated 2016).

Key:
Assay type in all cases: cell-based, human
[1] = tested on: 231/E-GFP cell line (MDA-MB-231 cells stably expressing E-Cad-GFP); test: Fluorescence microscopy of E-Cad-GFP localization in 231/E-Cad-GFP cells; conditions: 72 hrs, 100 nM Dexamethasone, 10 nM Largazole, or both (FIG. 3A)
Protocol: Fluorescence and immunofluorescence microscopy were performed essentially as described previously (Corsino et al 2008) employing antibodies to E-Cadherin (610182; BD Bioscience) and γ-Catenin (138500; Invitrogen, Carlsbad, Calif.).
The 231/E-GFP cell line was treated with a series of small molecule signaling agonists and antagonists to identify compounds that modulate E-Cadherin localization within the cell. […] Changes in E-Cadherin localization partially overlapped with changes in γ-Catenin localization. In vitro invasion assays were performed to determine the respective effects of E-Cadherin expression and Dex.+Larg. treatment on the invasiveness of MDA-MB-231 cells.
FIG. 3. Dexamethasone and Largazole cooperate to suppress invasion and to restore E-Cadherin localization to the cell periphery. A. Fluorescence (E-Cad-GFP) or immunofluorescence microscopy (γ-Catenin (γ-Cat.)) of 231/E-Cad-GFP cells treated for 72 hrs with Vehicle (Control), 100 nM Dexamethasone, 10 nM Largazole, or 100 nM Dexamethasone+10 nM Largazole (Dex.+Larg.). […] BT549 cells were treated and analyzed by immunofluorescence microscopy as in FIG. 3A. D. BT549 cells were treated as described in FIG. 3A and analyzed for invasion as outlined in FIG. 3B.

CDCP1 = CDCP1 immunoblot analysis, MDA-MB-231 cells; conditions: 72 hr, Dexamethasone 100 nM, Largazole 10 nM (FIG. 5A, 5C)
[2] = tested on: E-Cadherin-containing complexes; test: GST pulldown (glutathione-agarose) of E-Cadherin complexes from 231/E-Cad-GST cells, immunoblot; conditions: for stabilization of E-Cadherin/γ-Catenin complexes relative to vehicle: 10 nM Largazole, 1 μM SAHA, or 100 nM TSA (FIG. 6C)
Protocol: Cells were subjected to hypotonic lysis and membrane fractions were isolated by centrifugation for one hour at 100,000×g. The pellet was solubilized by sonication in buffer containing 2% Triton X100, 20 mM HEPES (pH 7.4), 1 mM EDTA, 1 mM EGTA, 0.1% β-mercaptoethanol, 5% glycerol, 10 nM microcystin, 200 μM Na3VO4, and 40 mM Na2H2P2O7. The membrane extract was centrifuged for one hour at 100,000×g, and the supernatant was used for E-Cadherin purifications. Complexes containing E-Cad-GST were isolated using glutathione-agarose (G4510; Sigma-Aldrich, St. Louis, Mo.), washed, and either eluted with 5 mM glutathione or eluted by boiling in SDS-PAGE sample buffer. In sequential purifications involving γ-Catenin-His6 and E-Cad-GST proteins expressed in the same cells, TALON (635503; Clontech Laboratories, Inc., Mountain View, Calif.) resin purifications were performed as described previously (Chytil et al 2004), and the 400 mM imidazole eluents were diluted ten-fold and purified using glutathione-agarose, followed by elution with 5 mM glutathione. […] Immunoprecipitations were performed as described previously (Law et al 2002) using 2 mg of total protein extract per sample and 4 μg of antibody per sample. Immunoprecipitates prepared using antibodies to E-Cadherin (610182; BD Biosciences) or GST (sc-459; Santa Cruz Biotechnology Inc.) were isolated with 35 μl per sample Protein G-Sepharose (10-1242; Invitrogen), washed, and eluted by boiling in SDS-PAGE sample buffer.
FIG. 6. […] A. Crude lysates (left panel) or GST pulldowns (right panel) from 231/E-Cad-GST cells treated for 72 hrs with 100 nM Dexamethasone, 10 nM Largazole, or Dex.+Larg. were analyzed by immunoblot. B. 231/E-Cad-GST cells were infected with an adenovirus encoding His6-tagged γ-Catenin and 231/neo cells were infected with an adenovirus encoding GFP and incubated 24 hours. The cells were then treated as indicated for 72 hrs with or without Dex.+Larg. γ-Catenin- and E-Cadherin containing complexes were isolated by sequential TALON and glutathione-agarose chromatography and analyzed by immunoblot. C. 231/E-Cad-GST cells were treated with 10 nM Largazole, 1 μM SAHA, or 100 nM TSA for 72 hrs and extracts were subjected to glutathione-agarose chromatography and the affinity purified material was analyzed by immunoblot.

BT549 cells = conditions: 72 hrs; 100 nM Dexamethasone, 10 nM Largazole, or both (FIG. 3D)

| Compound | E-Cadherin localization to the cell-cell periphery [1] | CDCP1 cleavage (cleaved form cCDCP1, p80) (CDCP1) | stabilization of E-Cadherin/γ-Catenin complexes relative to vehicle ([2]; 231/E-Cad-GST cells, 72 hrs) | γ-Catenin binding to E-Cadherin ([2]; 231/E-Cad-GST cells, 72 hrs, 100 nM Dexamethasone or 10 nM Largazole (FIG. 6A)) | levels of γ-Catenin ([2]; 231/E-Cad-GST crude lysates, 72 hrs, 10 nM Largazole (FIG. 6A)) | E-Cadherin association with β-Catenin ([2]; Largazole treatment) | invasion of BT549 cells in vitro (BT549 cells) |
| --- | --- | --- | --- | --- | --- | --- | --- |
| CCCCCCCC(=O)SCC/C=C/[C@@H]1CC(=O)NCc2nc(cs2)C2=N[C@@](C)(CS2)C(=O)N[C@@H](C(C)C)C(=O)O1 [Largazole, largazole] | modestly increased E-Cadherin localization to the cell-cell periphery | did not influence CDCP1 cleavage | stabilized E-Cadherin/γ-Catenin complexes to similar extents relative to vehicle treatment | preferentially increased γ-Catenin binding to E-Cadherin relative to β-Catenin binding | without changing the levels of γ-Catenin | little effect on E-Cadherin association with β-Catenin | suppressed the invasion of BT549 cells in vitro |
| O=C(CCCCCCC(=O)Nc1ccccc1)NO [SAHA, suberoylanilide hydroxamic acid, reference compound] |  |  | stabilized E-Cadherin/γ-Catenin complexes to similar extents relative to vehicle treatment |  |  |  |  |
| CC(/C=C/C(=O)NO)=C\[C@@H](C)C(=O)c1ccc(N(C)C)cc1 [TSA, Trichostatin A, reference compound] |  |  | stabilized E-Cadherin/γ-Catenin complexes to similar extents relative to vehicle treatment |  |  |  |  |
